Assays:
[1] = Metabolic stability and metabolite profile in mouse liver microsomes (MLM); format: in vitro ADME; conditions: phase I metabolites of compound 23 in MLM, LC-HRMS, estimated from total ion current
Experimental: Because of the lack of systemic activity of compound 23, we evaluated the in vitro plasmatic and hepatic metabolic stability. To this aim, compound 23 was exposed to mouse plasma and mouse liver microsome (MLM) fractions, and the residual substrate was measured after 1 h. Under these conditions, the residual substrate was about 97% and 90% in plasma and microsomes, respectively, denoting that this molecule suffers from mild hydrolysis of the ester group.
Metabolic biotransformation of compound 23 was investigated by tandem high‐resolution mass spectrometry using the software COMPOUND DISCOVERER 3.2™.
The standard incubation mixture (250 μL final volume) was carried out in a 50 mM Tris (tris[hydroxymethyl]aminomethane) buffer (pH 7.4) containing 150 mM KCl, […], 3.3 mM MgCl2, 1.3 mM NADPNa2, 3.3 mM glucose 6‐phosphate, 0.4 units·mL^−1 glucose 6‐phosphate dehydrogenase, acetonitrile as cosolvent (1% of total volume), and the substrate (50 μM). After pre‐equilibration of the mixture, an appropriate volume of MLM suspension was added to give a final protein concentration of 1.0 mg·mL^−1. The mixture was shaken for 60 min at 37 °C using a horizontal shaking thermostatic bath while protecting the samples from light. Control incubations were carried out without the presence of substrate, or NADPH regenerating system, or microsomes. Each incubation was stopped by the addition of 250 μL of ice‐cold acetonitrile, vortexed, and centrifuged at 13 000 r.p.m. for 5 min [68]. The supernatants were analyzed by LC‐UV and LC‐HRMS equipment (see Tables S1 and S2, Fig. S79 for full parameters setting in the Supporting Information).
The metabolic stability of the compound 23 was determined in vitro by measuring the residual peak area after incubation by LC‐UV analysis. Samples were further processed by LC‐HRMS equipment for metabolite profiling. Raw data files were processed using both XCALIBUR® and COMPOUND DISCOVERER 3.2® software (Thermo Scientific) using a customized workflow for the detection and identification of the expected and unknown metabolites (Fig. S80).

hTRPA1 = target: T1, hTRPA1 (Homo sapiens, UniProt O75762); assay: Whole-cell patch-clamp of AITC-evoked currents in HEK293 cells expressing hTRPA1; format: cell-based; conditions: 5 μM compound, 60 μM AITC, −60 mV
T1 construct: expressed in transfected cells; host or cells: HEK293 (transient, Lipofectamine 3000)
Experimental: To evaluate receptor selectivity, we investigated the activity of compound 23 on recombinant hTRPV1 and hTRPA1 channels recombinantly expressed in HEK293 cells (Fig. 4). We choose these thermosensory channels because of their structural similarity and expression in peripheral nociceptive terminals. In addition, some ligand cross‐interaction within these channels has been reported.
Recording through patch‐clamp techniques was performed on HEK293 cells cultured in DMEM GlutaMax with 10% FBS and 1% P/S. The cell lines were authenticated following the standardization of STR Profiling guidelines (ANSI/ATCC ASN‐0002‐2022) using the CLA Identifier Plus PCR Amplification Kit (Thermo Fisher‐A44660) to analyze 16 highly variant human STRs. The cells were confirmed to be mycoplasma‐free. These cells were transiently transfected with plasmids encoding hTRPV1, hTRPM8, or hTRPA1 using Lipofectamine 3000. Transfected cells were seeded on 12 mm Ø glass coverslips treated with poly‐L‐lysine solution and recorded 2 days post‐transfection. The intracellular pipette solution included (in mM) 150 NaCl, 3 MgCl2, 5 EGTA, and 10 HEPES, pH 7.2 with CsOH, while the extracellular solution contained (in mM) 150 NaCl, 6 CsCl, 1 MgCl2, 1.5 CaCl2, 10 glucose, and 10 HEPES, pH 7.4 with NaOH. An EPC‐10 amplifier with Patchmaster software was used in whole‐cell experiments. Patch pipettes, created from thin‐wall borosilicate capillary glass tubing, were pulled with a Micropipette puller to a final resistance of 2–8 MΩ when filled with the internal solution. Recordings were acquired at 10 kHz and low‐pass filtered at 3 kHz, discarding recordings with leak currents > 200pA or series resistance > 20 MΩ. In voltage‐clamp recordings, cells were held at a constant potential, and the application of modulators was carried out using a gravity‐driven perfusion system. […] Leak currents were not subtracted, and conductance was calculated using the equation: G = I/(V − V r), where I is the measured ionic current, V is the applied voltage, and V r is the reversal potential that for the ionic conditions used was set to 0 mV. […]

hTRPM8 = target: T2, hTRPM8 (Homo sapiens, UniProt Q7Z2W7); assay: Whole-cell patch-clamp of WS-12-evoked currents in HEK293 cells expressing hTRPM8; format: cell-based
T2 construct: expressed in transfected cells; host or cells: HEK293 (transient, Lipofectamine 3000)
Excerpt: We first used patch‐clamp to investigate the potency and blockade mechanism of compound 23 inhibiting WS‐12 evoked ionic currents in hTRPM8‐HEK293 cells. […] This blockade activity was reversible as virtually all WS‐12‐evoked ionic current could be recovered upon washout (Fig. 3A, bottom panel), thus preventing a use‐dependent side effect.
To unveil the underlying mechanism of channel blockade (competitive vs noncompetitive) we evaluated the effect of the α‐acyloxy carboxamide 23 on WS‐12 activating potency. For this purpose, we obtained the WS‐12 dose response in the absence and presence of 80 nM compound 23 (corresponding to its IC50 value).
For this purpose, we run 100 ms voltage ramps from −120 to 120 mV activated by WS‐12 in the absence and presence of 80 nM α‐acyloxy carboxamide 23.
Recording through patch‐clamp techniques was performed on HEK293 cells cultured in DMEM GlutaMax with 10% FBS and 1% P/S. The cell lines were authenticated following the standardization of STR Profiling guidelines (ANSI/ATCC ASN‐0002‐2022) using the CLA Identifier Plus PCR Amplification Kit (Thermo Fisher‐A44660) to analyze 16 highly variant human STRs. The cells were confirmed to be mycoplasma‐free. These cells were transiently transfected with plasmids encoding hTRPV1, hTRPM8, or hTRPA1 using Lipofectamine 3000. Transfected cells were seeded on 12 mm Ø glass coverslips treated with poly‐L‐lysine solution and recorded 2 days post‐transfection. The intracellular pipette solution included (in mM) 150 NaCl, 3 MgCl2, 5 EGTA, and 10 HEPES, pH 7.2 with CsOH, while the extracellular solution contained (in mM) 150 NaCl, 6 CsCl, 1 MgCl2, 1.5 CaCl2, 10 glucose, and 10 HEPES, pH 7.4 with NaOH. An EPC‐10 amplifier with Patchmaster software was used in whole‐cell experiments. Patch pipettes, created from thin‐wall borosilicate capillary glass tubing, were pulled with a Micropipette puller to a final resistance of 2–8 MΩ when filled with the internal solution. Recordings were acquired at 10 kHz and low‐pass filtered at 3 kHz, discarding recordings with leak currents > 200pA or series resistance > 20 MΩ. In voltage‐clamp recordings, cells were held at a constant potential, and the application of modulators was carried out using a gravity‐driven perfusion system. Total currents were normalized to the first current peak evoked by the activating stimuli. To study the effect of compound 23 on TRPM8 voltage dependence, a voltage step protocol from −120 to 120 mV was used with 100 ms steps of 20 mV from a holding potential at 0 mV. Leak currents were not subtracted, and conductance was calculated using the equation: G = I/(V − V r), where I is the measured ionic current, V is the applied voltage, and V r is the reversal potential that for the ionic conditions used was set to 0 mV.
Dose–response relationships for WS‐12 channel activation were normalized to the response of the channel to a saturating concentration of the agonist. Similarly, dose–response curves for blockade activity were normalized with respect to the response in the absence of the blocker. The experimental data were fitted to the Hill equation: Y=Bottom+Top‐Bottom/(1+10^ligand−LogIC50orLogEC50) using PRISM 9 software. Top was fixed to 100, as the unblocked response or the maximal response for WS‐12.

T2 sequence (Q7Z2W7 whole entry): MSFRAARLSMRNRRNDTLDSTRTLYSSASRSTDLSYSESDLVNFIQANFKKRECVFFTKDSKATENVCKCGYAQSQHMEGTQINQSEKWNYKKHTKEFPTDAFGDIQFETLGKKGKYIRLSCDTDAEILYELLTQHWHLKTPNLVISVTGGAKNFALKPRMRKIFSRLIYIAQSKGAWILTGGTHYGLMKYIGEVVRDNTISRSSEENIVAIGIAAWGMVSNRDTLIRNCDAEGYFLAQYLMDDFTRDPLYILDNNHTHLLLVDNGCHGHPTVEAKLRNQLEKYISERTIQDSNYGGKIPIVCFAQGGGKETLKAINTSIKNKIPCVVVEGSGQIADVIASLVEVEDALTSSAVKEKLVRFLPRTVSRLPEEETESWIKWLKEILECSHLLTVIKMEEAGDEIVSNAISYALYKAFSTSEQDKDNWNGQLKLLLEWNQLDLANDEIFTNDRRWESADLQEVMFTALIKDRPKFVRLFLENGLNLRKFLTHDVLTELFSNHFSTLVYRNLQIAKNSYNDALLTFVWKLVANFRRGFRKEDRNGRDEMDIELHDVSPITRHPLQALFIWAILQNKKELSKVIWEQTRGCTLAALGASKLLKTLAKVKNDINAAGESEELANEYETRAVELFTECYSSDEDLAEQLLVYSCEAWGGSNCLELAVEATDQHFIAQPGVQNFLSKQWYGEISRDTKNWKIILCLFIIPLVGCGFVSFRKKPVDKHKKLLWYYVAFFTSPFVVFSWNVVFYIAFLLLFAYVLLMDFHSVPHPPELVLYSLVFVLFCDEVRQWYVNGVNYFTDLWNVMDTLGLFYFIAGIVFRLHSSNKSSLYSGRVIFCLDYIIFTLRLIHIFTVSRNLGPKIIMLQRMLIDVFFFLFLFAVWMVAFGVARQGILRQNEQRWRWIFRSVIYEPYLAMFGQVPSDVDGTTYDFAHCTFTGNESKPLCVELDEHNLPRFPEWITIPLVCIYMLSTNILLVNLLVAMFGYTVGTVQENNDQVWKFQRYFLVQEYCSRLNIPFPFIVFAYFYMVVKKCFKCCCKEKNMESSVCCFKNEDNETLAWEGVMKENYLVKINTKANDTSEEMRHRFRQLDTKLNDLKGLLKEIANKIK
T1 sequence (O75762 whole entry): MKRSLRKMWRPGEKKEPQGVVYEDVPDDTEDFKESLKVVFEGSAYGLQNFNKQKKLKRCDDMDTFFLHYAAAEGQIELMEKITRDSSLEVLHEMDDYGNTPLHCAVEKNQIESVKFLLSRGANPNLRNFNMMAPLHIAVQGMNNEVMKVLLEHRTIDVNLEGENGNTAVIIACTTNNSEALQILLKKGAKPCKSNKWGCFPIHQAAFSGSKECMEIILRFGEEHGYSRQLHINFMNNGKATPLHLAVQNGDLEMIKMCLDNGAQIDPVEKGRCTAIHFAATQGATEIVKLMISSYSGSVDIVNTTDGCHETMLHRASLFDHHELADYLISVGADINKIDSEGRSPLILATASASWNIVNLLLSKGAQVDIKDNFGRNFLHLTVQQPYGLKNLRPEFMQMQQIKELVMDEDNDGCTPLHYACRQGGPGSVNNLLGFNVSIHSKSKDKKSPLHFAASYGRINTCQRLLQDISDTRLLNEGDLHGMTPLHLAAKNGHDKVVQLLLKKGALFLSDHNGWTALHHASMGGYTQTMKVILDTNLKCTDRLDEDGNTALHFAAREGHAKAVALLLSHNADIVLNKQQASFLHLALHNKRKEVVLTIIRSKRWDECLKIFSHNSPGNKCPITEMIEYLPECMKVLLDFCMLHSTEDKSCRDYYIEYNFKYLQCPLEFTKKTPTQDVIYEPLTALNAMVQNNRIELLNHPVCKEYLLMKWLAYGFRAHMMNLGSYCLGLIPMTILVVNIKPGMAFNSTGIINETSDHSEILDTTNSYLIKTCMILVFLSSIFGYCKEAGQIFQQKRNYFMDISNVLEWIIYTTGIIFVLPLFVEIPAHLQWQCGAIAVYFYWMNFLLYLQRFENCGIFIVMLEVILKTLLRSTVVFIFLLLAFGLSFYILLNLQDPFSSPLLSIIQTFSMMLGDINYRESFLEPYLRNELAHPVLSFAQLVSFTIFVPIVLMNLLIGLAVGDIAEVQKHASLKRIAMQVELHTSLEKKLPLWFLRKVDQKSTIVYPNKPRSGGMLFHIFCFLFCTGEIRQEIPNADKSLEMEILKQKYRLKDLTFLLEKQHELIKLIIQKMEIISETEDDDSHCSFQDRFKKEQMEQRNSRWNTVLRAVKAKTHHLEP

Structure (SMILES): O=C(CO)NC12CC3CC(CC(C3)C1)C2 [Compound M1a]
- Metabolite relative abundancy [1]: 18.7%

Structure (SMILES): CC(C)c1ccc(NC(=O)Cn2cnc3c2c(=O)n(C)c(=O)n3C)cc1 [HC030031, 2‐(1,3‐Dimethyl‐2,6‐dioxo‐1,2,3,6‐tetrahydro‐7H‐purin‐7‐yl)‐N‐(4‐isopropylphenyl)acetamide, reference compound]
- block of hTRPA1‐evoked (AITC) current (hTRPA1): completely abrogated

Structure (SMILES): Cc1cccc(COc2ccccc2C(=O)N(CCCN)Cc2cccs2)c1 [AMTB, N‐(3‐aminopropyl)‐2‐{[(3‐methylphenyl)methyl]oxy}(20)‐N‐(2‐thienylmethyl)benzamide, reference compound]
- voltage dependency of channel blockade (hTRPM8; voltage steps −120 to 120 mV, 0.08 μM compound 23, 10 μM AMTB): not voltage dependent

Structure (SMILES): COc1ccc(NC(=O)[C@@H]2C[C@H](C)CC[C@H]2C(C)C)cc1 [WS‐12, (1R,2S,5R)‐N‐(4‐methoxyphenyl)‐5‐methyl‐2‐(propan‐2‐yl)cyclohexane‐1‐carboxamide, reference compound]
- WS‐12 Hill coefficient in the absence of compound 23 (hTRPM8; patch-clamp): 1.17
- WS‐12 Hill coefficient in the presence of compound 23 (hTRPM8; patch-clamp, 0.08 μM compound 23): 0.95
- EC50 (hTRPM8; patch-clamp, n = 18, read-out: WS‐12 EC50 in the absence of compound 23): 3 µM
